Here are results for 2 compounds from patent US9951041B2, “Crystalline C21H22Cl2N4O2 malonate” (BIOMED VALLEY DISCOVERIES, INC., priority 2015, dated 2018).

Data set [1] can be described thus: Aqueous dissolution/solubility in fasting state simulated gastric fluid (FaSSGF) pH 1.6. To be noted: for Conc (solubility): pH 1.6 FaSSGF buffer, ambient temperature, shaken. From the text:
Samples of 4-(5-Chloro-2-isopropylaminopyridin-4-yl)-1H-pyrrole-2-carboxylic acid [1-(3-chlorophenyl)-2-hydroxyethyl]amide Form C and 4-(5-Chloro-2-isopropylaminopyridin-4-yl)-1H-pyrrole-2-carboxylic acid [1-(3-chlorophenyl)-2-hydroxyethyl]amide malonate Form A were each shaken at ambient temperature in fasting state simulated gastric fluid (FaSSGF) pH 1.6 for 30. Concentration of 4-(5-Chloro-2-isopropylaminopyridin-4-yl)-1H-pyrrole-2-carboxylic acid [1-(3-chlorophenyl)-2-hydroxyethyl]amide was measured at 5, 15 and 30 minutes.

Data set [2] in a line: Pharmacokinetic evaluation in male beagles, two-way cross-over, oral gavage. The data set is classed as in vivo. The text has this: […]. […] […]
Data set [3] in a line: Aqueous dissolution/solubility in fasting state simulated intestinal fluid (FaSSIF) pH 6.5 after 30 min in FaSSGF. It counts as physicochemical. To be noted: pH 6.5 FaSSIF buffer, after 30 min FaSSGF. As to the method: After 30 minutes, the samples were removed from FaSSGF, placed in fasting state simulated intestinal fluid (FaSSIF) pH 6.5, with shaking, for an additional 5 hours.

Where [4] appears, read: pH 1.6, fassgf or other biorelevant, thermodynamic from solid.

≈ marks a conversion by molar mass, not a printed value.

Turning to `CC(C)Nc1cc(-c2c[nH]c(C(=O)NC(CO)c3cccc(Cl)c3)c2)c(Cl)cn1` (stereo not shown) [Form C, 4-(5-Chloro-2-isopropylaminopyridin-4-yl)-1H-pyrrole-2-carboxylic acid [1-(3-chlorophenyl)-2-hydroxyethyl]amide Form C], the “Conc (solubility)” value in data set [1] (15 min) was 101.35 µg/mL; in data set [1] (30 min), 136.97 µg/mL; in data set [3] (30 min), 169.89 µg/mL; in data set [3] (120 min), 332.68 µg/mL; in data set [3] (270 min), 128.38 µg/mL; in data set [3] (300 min) it was 154.70 µg/mL. For the same compound, the “coefficient of variation (CV) of average area under the curve (AUC)” value in data set [2] (male beagles, single dose 5 mg/kg by oral gavage, plasma 0-24 hours) is on record as 39%.
In data set [1] (setting [4]), `CC(C)Nc1cc(-c2c[nH]c(C(=O)N[C@H](CO)c3cccc(Cl)c3)c2)c(Cl)cn1` [Malonate Form A, 4-(5-Chloro-2-isopropylaminopyridin-4-yl)-1H-pyrrole-2-carboxylic acid [1-(3-chlorophenyl)-2-hydroxyethyl]amide malonate Form A] displayed a solubility at 5 min of 381 µg/mL (≈ 878 µM), a solubility at 15 min of 385 µg/mL (≈ 889 µM) and a solubility at 30 min of 369 µg/mL (≈ 851 µM). Besides, the “coefficient of variation (CV) of average area under the curve (AUC)” value in data set [2] (male, beagle, dog, in vivo, po, 5 mg/kg) stood at 50%. Moreover, the solubility at 10 min in data set [3] (fasting state simulated intestinal fluid (FaSSIF), thermodynamic from solid, 10 min, read-out: Conc (solubility)) is 63.3 µg/mL (≈ 146 µM). Also, the solubility at 30 min in data set [3] (fasting state simulated intestinal fluid (FaSSIF), thermodynamic from solid, 30 min, read-out: Conc (solubility)) is 110 µg/mL (≈ 254 µM). Further, in data set [3] (fasting state simulated intestinal fluid (FaSSIF), thermodynamic from solid, 60 min, read-out: Conc (solubility)), the solubility at 60 min is 114 µg/mL (≈ 263 µM). Further, the solubility at 90 min in data set [3] (fasting state simulated intestinal fluid (FaSSIF), thermodynamic from solid, 90 min, read-out: Conc (solubility)) was 115 µg/mL (≈ 266 µM). For the same compound, the solubility at 120 min in data set [3] (fasting state simulated intestinal fluid (FaSSIF), thermodynamic from solid, 120 min, read-out: Conc (solubility)) is 110 µg/mL (≈ 254 µM). In addition, the solubility at 180 min in data set [3] (fasting state simulated intestinal fluid (FaSSIF), thermodynamic from solid, 180 min, read-out: Conc (solubility)) is 110 µg/mL (≈ 255 µM). Moreover, in data set [3] (fasting state simulated intestinal fluid (FaSSIF), thermodynamic from solid, 270 min, read-out: Conc (solubility)), the solubility at 270 min is 116 µg/mL (≈ 267 µM). In data set [3] (fasting state simulated intestinal fluid (FaSSIF), thermodynamic from solid, 300 min, read-out: Conc (solubility)), the solubility at 300 min was 115 µg/mL (≈ 266 µM).

The term solubility denotes the concentration that dissolves in the medium under given conditions.
